Results as given in ChEMBL document CHEMBL3045592, “Studies of O,O-dimethyl α-(2,4-dichlorophenoxyacetoxy)ethylphosphonate (HW02) as a new herbicide. 1. Synthesis and herbicidal activity of HW02 and analogues as novel inhibitors of pyruvate dehydrogenase complex” (J Agric Food Chem, 2011).

Key:
Brassica juncea = experiment: Post-emergence herbicidal activity against Brassica juncea assessed as growth inhibition at 450 ai g/ha after 20 days by green house test; assay type: functional
Digitaria sanguinalis [1] = experiment: Post-emergence herbicidal activity against Digitaria sanguinalis (hairy crabgrass) assessed as growth inhibition at 75 ai g/ha after 20 days by green house test; assay type: functional
Digitaria sanguinalis [2] = experiment: Pre-emergence herbicidal activity against Digitaria sanguinalis (hairy crabgrass) assessed as growth inhibition at 450 ai g/ha after 20 days by green house test; assay type: functional
Digitaria sanguinalis [3] = experiment: Pre-emergence herbicidal activity against Digitaria sanguinalis (hairy crabgrass) assessed as growth inhibition at 150 ai g/ha after 20 days by green house test; assay type: functional
Digitaria sanguinalis [4] = experiment: Pre-emergence herbicidal activity against Digitaria sanguinalis (hairy crabgrass) assessed as growth inhibition at 75 ai g/ha after 20 days by green house test; assay type: functional
Chenopodium album [5] = experiment: Post-emergence herbicidal activity against Chenopodium album assessed as growth inhibition at 450 ai g/ha after 20 days by green house test; assay type: functional
Chenopodium album [6] = experiment: Post-emergence herbicidal activity against Chenopodium album assessed as growth inhibition at 150 ai g/ha after 20 days by green house test; assay type: functional
Chenopodium album [7] = experiment: Post-emergence herbicidal activity against Chenopodium album assessed as growth inhibition at 75 ai g/ha after 20 days by green house test; assay type: functional
Chenopodium album [8] = experiment: Pre-emergence herbicidal activity against Chenopodium album assessed as growth inhibition at 450 ai g/ha after 20 days by green house test; assay type: functional
Chenopodium album [9] = experiment: Pre-emergence herbicidal activity against Chenopodium album assessed as growth inhibition at 150 ai g/ha after 20 days by green house test; assay type: functional
Chenopodium album [10] = experiment: Pre-emergence herbicidal activity against Chenopodium album assessed as growth inhibition at 75 ai g/ha after 20 days by green house test; assay type: functional
Amaranthus spinosus [11] = experiment: Post-emergence herbicidal activity against Amaranthus spinosus assessed as growth inhibition at 450 ai g/ha after 20 days by green house test; assay type: functional
Amaranthus spinosus [12] = experiment: Post-emergence herbicidal activity against Amaranthus spinosus assessed as growth inhibition at 150 ai g/ha after 20 days by green house test; assay type: functional
Amaranthus spinosus [13] = experiment: Post-emergence herbicidal activity against Amaranthus spinosus assessed as growth inhibition at 75 ai g/ha after 20 days by green house test; assay type: functional
[14] = target: Pyruvate dehydrogenase complex (Vigna radiata var. radiata); experiment: Inhibition of PDHc in Vigna radiata var. radiata VC2778A shoot mitochondria assessed as decrease in rate of NADH formation using sodium pyruvate as substrate preincubated for 25 min before substrate addition measured after 1 min by spectrophotometric assay; assay type: protein-complex assay
Echinochloa crus-galli [15] = experiment: Post-emergence herbicidal activity against Echinochloa crus-galli (barnyard grass) assessed as growth inhibition at 450 ai g/ha after 20 days by green house test; assay type: functional
Abutilon theophrasti [16] = experiment: Post-emergence herbicidal activity against Abutilon theophrasti (velvetleaf) assessed as growth inhibition at 75 ai g/ha after 20 days by green house test; assay type: functional
Abutilon theophrasti [17] = experiment: Pre-emergence herbicidal activity against Abutilon theophrasti (velvetleaf) assessed as growth inhibition at 450 ai g/ha after 20 days by green house test; assay type: functional
Abutilon theophrasti [18] = experiment: Pre-emergence herbicidal activity against Abutilon theophrasti (velvetleaf) assessed as growth inhibition at 150 ai g/ha after 20 days by green house test; assay type: functional
Abutilon theophrasti [19] = experiment: Pre-emergence herbicidal activity against Abutilon theophrasti (velvetleaf) assessed as growth inhibition at 75 ai g/ha after 20 days by green house test; assay type: functional
Amaranthus spinosus [20] = experiment: Pre-emergence herbicidal activity against Amaranthus spinosus assessed as growth inhibition at 450 ai g/ha after 20 days by green house test; assay type: functional
Amaranthus spinosus [21] = experiment: Pre-emergence herbicidal activity against Amaranthus spinosus assessed as growth inhibition at 150 ai g/ha after 20 days by green house test; assay type: functional
Amaranthus spinosus [22] = experiment: Pre-emergence herbicidal activity against Amaranthus spinosus assessed as growth inhibition at 75 ai g/ha after 20 days by green house test; assay type: functional
[23] = Toxicity against Oryza sativa (rice) assessed as growth inhibition at 450 ai g/ha post-emergent application measured after 20 days by green house crop selectivity test; assay type: organism-based; conditions: in vivo, read-out: GI
Abutilon theophrasti [24] = experiment: Post-emergence herbicidal activity against Abutilon theophrasti (velvetleaf) assessed as growth inhibition at 450 ai g/ha after 20 days by green house test; assay type: functional
Amaranthus retroflexus [25] = experiment: Post-emergence herbicidal activity against Amaranthus retroflexus assessed as growth inhibition at 450 ai g/ha after 20 days by green house test; assay type: functional
Cucumis sativus = experiment: Herbicidal activity against Cucumis sativus Jin 4 (cucumber) assessed as inhibition of root growth after 3 days; assay type: functional, organism-based; conditions: Jin 4, 72 h
Abutilon theophrasti [26] = experiment: Post-emergence herbicidal activity against Abutilon theophrasti (velvetleaf) assessed as growth inhibition at 150 ai g/ha after 20 days by green house test; assay type: functional
Setaria viridis [27] = experiment: Post-emergence herbicidal activity against Setaria viridis (green foxtail) assessed as growth inhibition at 450 ai g/ha after 20 days by green house test; assay type: functional
Setaria viridis [28] = experiment: Post-emergence herbicidal activity against Setaria viridis (green foxtail) assessed as growth inhibition at 150 ai g/ha after 20 days by green house test; assay type: functional
Setaria viridis [29] = experiment: Post-emergence herbicidal activity against Setaria viridis (green foxtail) assessed as growth inhibition at 75 ai g/ha after 20 days by green house test; assay type: functional
Setaria viridis [30] = experiment: Pre-emergence herbicidal activity against Setaria viridis (green foxtail) assessed as growth inhibition at 450 ai g/ha after 20 days by green house test; assay type: functional
Setaria viridis [31] = experiment: Pre-emergence herbicidal activity against Setaria viridis (green foxtail) assessed as growth inhibition at 150 ai g/ha after 20 days by green house test; assay type: functional
Setaria viridis [32] = experiment: Pre-emergence herbicidal activity against Setaria viridis (green foxtail) assessed as growth inhibition at 75 ai g/ha after 20 days by green house test; assay type: functional
Digitaria sanguinalis [33] = experiment: Post-emergence herbicidal activity against Digitaria sanguinalis (hairy crabgrass) assessed as growth inhibition at 450 ai g/ha after 20 days by green house test; assay type: functional
Digitaria sanguinalis [34] = experiment: Post-emergence herbicidal activity against Digitaria sanguinalis (hairy crabgrass) assessed as growth inhibition at 150 ai g/ha after 20 days by green house test; assay type: functional
Pisum sativum = experiment: Post-emergence herbicidal activity against Pisum sativum Zhongwan-2 (pea) assessed as growth inhibition at 450 ai g/ha after 20 days by green house test; conditions: Lathyrus oleraceus
Medicago sativa [35] = experiment: Post-emergence herbicidal activity against Medicago sativa (alfalfa) assessed as growth inhibition at 1500 ai g/ha after 20 days by green house test; assay type: functional
Amaranthus retroflexus [36] = experiment: Post-emergence herbicidal activity against Amaranthus retroflexus assessed as growth inhibition at 1500 ai g/ha after 20 days by green house test; assay type: functional
[37] = test system: Brassica rapa subsp. oleifera; experiment: Post-emergence herbicidal activity against Brassica rapa subsp. oleifera Si Yue Man assessed as growth inhibition at 1500 ai g/ha after 20 days by green house test; assay type: functional
Digitaria sanguinalis [38] = experiment: Post-emergence herbicidal activity against Digitaria sanguinalis (hairy crabgrass) assessed as growth inhibition at 1500 ai g/ha after 20 days by green house test; assay type: functional
Echinochloa crus-galli [39] = experiment: Post-emergence herbicidal activity against Echinochloa crus-galli (barnyard grass) assessed as growth inhibition at 1500 ai g/ha after 20 days by green house test; assay type: functional
Medicago sativa [40] = experiment: Pre-emergence herbicidal activity against Medicago sativa (alfalfa) assessed as growth inhibition at 1500 ai g/ha after 20 days by green house test; assay type: functional
Amaranthus retroflexus [41] = experiment: Pre-emergence herbicidal activity against Amaranthus retroflexus assessed as growth inhibition at 1500 ai g/ha after 20 days by green house test; assay type: functional
[42] = test system: Brassica rapa subsp. oleifera; experiment: Pre-emergence herbicidal activity against Brassica rapa subsp. oleifera Si Yue Man assessed as growth inhibition at 1500 ai g/ha after 20 days by green house test; assay type: functional
Digitaria sanguinalis [43] = experiment: Pre-emergence herbicidal activity against Digitaria sanguinalis (hairy crabgrass) assessed as growth inhibition at 1500 ai g/ha after 20 days by green house test; assay type: functional
Echinochloa crus-galli [44] = experiment: Pre-emergence herbicidal activity against Echinochloa crus-galli (barnyard grass) assessed as growth inhibition at 1500 ai g/ha after 20 days by green house test; assay type: functional

Compound | growth inhibition (GI) (Digitaria sanguinalis [1]) | growth inhibition (GI) (Digitaria sanguinalis [2]) | growth inhibition (GI) (Digitaria sanguinalis [3]) | growth inhibition (GI) (Digitaria sanguinalis [4]) | growth inhibition (GI) (Chenopodium album [5]) | growth inhibition (GI) (Chenopodium album [6]) | growth inhibition (GI) (Chenopodium album [7]) | growth inhibition (GI) (Chenopodium album [8]) | growth inhibition (GI) (Chenopodium album [9]) | growth inhibition (GI) (Chenopodium album [10]) | growth inhibition (GI) (Amaranthus spinosus [11]) | growth inhibition (GI) (Amaranthus spinosus [12]) | growth inhibition (GI) (Amaranthus spinosus [13]) | growth inhibition (GI) (Abutilon theophrasti [16]) | growth inhibition (GI) (Abutilon theophrasti [17]) | growth inhibition (GI) (Abutilon theophrasti [18]) | growth inhibition (GI) (Abutilon theophrasti [19]) | growth inhibition (GI) (Amaranthus spinosus [20]) | growth inhibition (GI) (Amaranthus spinosus [21]) | growth inhibition (GI) (Amaranthus spinosus [22]) | other results
CCOP(=O)(OCC)C(C)OC(=O)COc1ccc(Cl)cc1Cl (configuration not stated) | 0% | 10% | 0% | 0% | 97.5% | 92.5% | 62.5% | 52.5% | 0% | 0% | 100% | 82.5% | 52.5% | 97.5% | 47.5% | 0% | 0% | 50% | 0% | 0% | growth inhibition (GI) (Brassica juncea): 97.5%; IC50 [14]: 23.1 µM; growth inhibition (GI) (Echinochloa crus-galli [15]): 5%; inhibition at 480 h [23]: 37.5%; growth inhibition (GI) (Abutilon theophrasti [24]): 100%; growth inhibition (GI) (Amaranthus retroflexus [25]): 100%; IC50 (Cucumis sativus): 0.3 µM; growth inhibition (GI) (Abutilon theophrasti [26]): 97.5%; growth inhibition (GI) (Setaria viridis [27]): 0%; growth inhibition (GI) (Setaria viridis [28]): 0%; growth inhibition (GI) (Setaria viridis [29]): 0%; growth inhibition (GI) (Setaria viridis [30]): 5.5%; growth inhibition (GI) (Setaria viridis [31]): 0%; growth inhibition (GI) (Setaria viridis [32]): 0%; growth inhibition (GI) (Digitaria sanguinalis [33]): 0%; growth inhibition (GI) (Digitaria sanguinalis [34]): 0%; growth inhibition (GI) (Pisum sativum): 82.5%
COP(=O)(OC)C(OC(=O)COc1ccc(Cl)cc1C)c1cccc([N+](=O)[O-])c1 (configuration not stated) | 0% | 0% | 0% | 0% | 100% | 82.5% | 52.5% | 0% | 0% | 0% | 100% | 100% | 50% | 50% | 0% | 0% | 0% | 0% | 0% | 0% | growth inhibition (GI) (Medicago sativa [35]): 50%; growth inhibition (GI) (Amaranthus retroflexus [36]): 90%; growth inhibition (GI) [37]: 75%; growth inhibition (GI) (Digitaria sanguinalis [38]): <=50%; growth inhibition (GI) (Echinochloa crus-galli [39]): 75%; growth inhibition (GI) (Medicago sativa [40]): 75%; growth inhibition (GI) (Amaranthus retroflexus [41]): 75%; growth inhibition (GI) [42]: 50%; growth inhibition (GI) (Digitaria sanguinalis [43]): 90%; growth inhibition (GI) (Echinochloa crus-galli [44]): 90%; growth inhibition (GI) (Abutilon theophrasti [24]): 100%; growth inhibition (GI) (Abutilon theophrasti [26]): 90%; growth inhibition (GI) (Setaria viridis [27]): 0%; growth inhibition (GI) (Setaria viridis [28]): 0%; growth inhibition (GI) (Setaria viridis [29]): 0%; growth inhibition (GI) (Setaria viridis [30]): 0%; growth inhibition (GI) (Setaria viridis [31]): 0%; growth inhibition (GI) (Setaria viridis [32]): 0%; growth inhibition (GI) (Digitaria sanguinalis [33]): 10%; growth inhibition (GI) (Digitaria sanguinalis [34]): 0%
